Results published in patent US20110207726A1, “Inhibitors of Human Cathepsin L, Cathepsin B, and Cathepsin S” (The Trustees of the University of Pennsylvania, priority 2008, published 2011).
Like-named read-outs stand apart in the source and are kept apart here.

Assays:
Format in all cases: biochemical
human liver cathepsin L = target: T1, human liver cathepsin L (Homo sapiens, UniProt P07711); assay: Cathepsin L assay, IC50 determination
T1 construct: 8.7 ng/mL human liver cathepsin L (Calbiochem 219402); purchased Calbiochem 219402; host or cells: human liver
Description: Assay buffer consisted of 20 mM sodium acetate, 1 mM ethylenediaminetetraacetic acid (EDTA) and 5 mM cysteine, pH 5.5. Cathepsin L was incubated in assay buffer for 30 minutes prior to dispensing into wells to allow for efficient reduction of the active site cysteine required for full enzymatic activity.
Upon activation, cathepsin L (300 pM, 8.7 ng/mL) was incubated with 1 microM Z-Phe-Arg-AMC substrate (Sigma C9521) and test compound in […] of assay buffer for 1 hour at room temperature.
All reactions were performed in 20 mM sodium acetate buffer containing 5 mM cysteine and 1 mM EDTA, pH 5.5. Reaction progress was monitored using the Envision microplate reader. IC50 values were measured in triplicate.

Human liver cathepsin B = target: T2, Human liver cathepsin B (Homo sapiens, UniProt P07858); assay: Cathepsin B assay, IC50 determination; conditions: Table 1; read-out: IC50 Cat B
T2 construct: Human liver cathepsin B (Calbiochem 219362, 65 ng/mL); purchased Calbiochem 219362; host or cells: human liver
Description: (§1) Human spleen cathepsin S (Calbiochem 219344, 40 ng/mL) was assayed using 15 microM Z-Phe-Arg-AMC substrate. Human liver cathepsin B (Calbiochem 219362, 65 ng/mL) was assayed using 15 microM Z-Arg-Arg-AMC substrate (Bachem I-1135). All reactions were performed in 20 mM sodium acetate buffer containing 1 mM EDTA and 5 mM cysteine, pH 5.5.
(§2) Compounds were serially diluted in DMSO and transferred into a 96-well Corning 3686 assay microplate to give a 16-point two-fold serial dilution dose response ranging from 25 microM to 760 pM. Human liver cathepsin L (Calbiochem 219402) was activated by incubating with assay buffer for 30 min. Upon activation, cathepsin L (300 pM, 8.7 ng/mL) was incubated with 1 microM Z-Phe-Arg-AMC substrate (Sigma C9521) and test compound in […] of assay buffer for 1 hour at room temperature. Fluorescence of AMC released by enzyme-catalyzed hydrolysis of Z-Phe-Arg-AMC was read on a PerkinElmer Envision microplate reader (excitation 355 nm, emission 460 nm). Data were scaled using internal controls and fitted to a four-parameter logistic model (IDBS XLfit equation 205) to obtain IC50 values in triplicate.
(§3) Compound No. 1 was assayed for inhibition against papain and cathepsins B, G, K, S, and V. Papain from Carica papaya (Calbiochem 5125, 11 ng/mL), human cathepsin K (Calbiochem 342001, 35 ng/mL), human spleen cathepsin S (Calbiochem 219344, 40 ng/mL), and human cathepsin V (Calbiochem 219467, 39 ng/ml) were assayed using Z-Phe-Arg-AMC substrate at 20 μM, 20 μM, 15 μM, and 1 μM, respectively. Human liver cathepsin B (Calbiochem 219362, 65 ng/mL) was assayed using 15 μM Z-Arg-Arg-AMC substrate (Bachem I-1135). Human neutrophil cathepsin G (Calbiochem 219373, 4.2 μg/mL) was assayed using 15 μM Suc-Ala-Ala-Pro-Phe-AMC substrate (Sigma S9761). All reactions were performed in 20 mM sodium acetate buffer containing 5 mM cysteine and 1 mM EDTA, pH 5.5. Reaction progress was monitored using the Envision microplate reader. IC50 values were measured in triplicate.

Human spleen cathepsin S = target: T3, Human spleen cathepsin S (Homo sapiens, UniProt P25774); assay: Cathepsin S assay, IC50 determination; conditions: Table 1; read-out: IC50 Cat S
T3 construct: Human spleen cathepsin S (Calbiochem 219344, 40 ng/mL); purchased Calbiochem 219344; host or cells: human spleen
Description: as §1, §2, §3

[1] = Table 17, n = 3, C, S or O at the sulfur position, read-out: Cathepsin L inhibitory activity IC50

T1 sequence (P07711 114-288 limits assumed): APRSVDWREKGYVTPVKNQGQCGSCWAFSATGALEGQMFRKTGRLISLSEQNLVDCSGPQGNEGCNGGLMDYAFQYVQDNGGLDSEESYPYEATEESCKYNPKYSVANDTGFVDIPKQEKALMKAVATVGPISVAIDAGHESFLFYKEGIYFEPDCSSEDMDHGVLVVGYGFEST
T1 sequence (P07711 292-333 limits assumed): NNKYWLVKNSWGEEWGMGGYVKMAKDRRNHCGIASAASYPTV
T3 sequence (P25774 115-331): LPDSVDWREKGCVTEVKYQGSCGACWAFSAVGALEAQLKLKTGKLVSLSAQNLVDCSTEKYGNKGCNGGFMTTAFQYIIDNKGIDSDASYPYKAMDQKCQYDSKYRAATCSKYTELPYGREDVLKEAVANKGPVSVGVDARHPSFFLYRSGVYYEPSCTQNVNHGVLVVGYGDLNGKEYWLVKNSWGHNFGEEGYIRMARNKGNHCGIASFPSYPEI

Row | SMILES | IC50 (human liver cathepsin L; [1]) | cathepsin L inhibitory activity (in words) (human liver cathepsin L) | IC50 (human liver cathepsin L; Table 1, read-out: IC50 Cat L) | IC50 (Human liver cathepsin B) | IC50 (Human spleen cathepsin S) | IC50 (human liver cathepsin L; read-out: IC50 against cathepsin L)
1 | CCc1ccccc1NC(=O)COC(=O)NNC(=O)C(Cc1c[nH]c2ccccc12)NC(=O)OC(C)(C)C (stereo not shown) [2-ethylanilide O] | 28 ± 4 nM |  |  |  |  | 
2 | CCc1ccccc1NC(=O)CSc1nnc([C@@H](N)Cc2c[nH]c3ccccc23)o1 [Compound (ii)] |  | completely devoid of activity |  |  |  | 
3 | CC(C)(C)OC(=O)N[C@@H](Cc1c[nH]c2ccccc12)C(=O)NNC(=O)SCC(=O)N1CCCc2ccccc21 [Compound No. 5] |  |  | 96 nM | 4460 nM | 930 nM | 
4 | CC(C)(C)OC(=O)N[C@@H](Cc1c[nH]c2ccccc12)C(=O)NNC(=O)SCC(=O)NCCc1ccccc1 [Compound No. 7] |  |  | 29 nM | 6590 nM | 320 nM | 
5 | CCOC(=O)c1cccc(NC(=O)CSC(=O)NNC(=O)[C@H](Cc2c[nH]c3ccccc23)NC(=O)OC(C)(C)C)c1 [Compound No. 8] |  |  | 62 nM | > 25000 nM | 680 nM | 
6 | CCOC(=O)c1ccc(NC(=O)CSC(=O)NNC(=O)[C@H](Cc2c[nH]c3ccccc23)NC(=O)OC(C)(C)C)cc1 [Compound No. 9] |  |  | 57 nM | > 25000 nM | 580 nM | 
7 | CC(C)(C)OC(=O)N[C@@H](Cc1c[nH]c2ccccc12)C(=O)NNC(=O)SCC(=O)N1CCOc2ccccc21 [Compound No. 10] |  |  | 220 nM | 3230 nM | 950 nM | 
8 | CC(C)(C)OC(=O)N[C@@H](Cc1c[nH]c2ccccc12)C(=O)NNC(=O)SCC(=O)N1CCc2ccccc2C1 [Compound No. 12] |  |  | 19 nM | 3250 nM | 530 nM | 
9 | CC(C)(C)OC(=O)N[C@@H](Cc1c[nH]c2ccccc12)C(=O)NNC(=O)SCC(=O)N1CCc2ccc(Br)cc2C1c1ccccc1 (stereo partly shown) [Compound No. 13] |  |  | 1030 nM | > 25000 nM | 2900 nM | 
10 | CC(C)(C)OC(=O)N[C@@H](Cc1c[nH]c2ccccc12)C(=O)NNC(=O)SC1CCN(c2ccccc2)C1=O (stereo partly shown) [Compound No. 14] |  |  | 1050 nM | 14000 nM | 2070 nM | 
11 | COC(=O)CSC(=O)NNC(=O)[C@H](Cc1c[nH]c2ccccc12)NC(=O)OC(C)(C)C [Compound No. 15] |  |  | 98 nM | 6330 nM | 570 nM | 
12 | CCc1ccccc1NC(=O)CSC(=O)NNC(=O)[C@@H](Cc1c[nH]c2ccccc12)NC(=O)OC(C)(C)C [Compound No. 16] |  |  | > 25000 nM | > 25000 nM | > 25000 nM | 
13 | CCc1ccccc1NC(=O)CSC(=O)NNC(=O)[C@H](CCSC)NC(=O)OC(C)(C)C [Compound No. 17] |  |  | 1290 nM | 2030 nM | 690 nM | 
14 | CSCC[C@H](NC(=O)OC(C)(C)C)C(=O)NNC(=O)SCC(=O)N1CCCc2ccccc21 [Compound No. 18] |  |  | 1340 nM | 2210 nM | 630 nM | 
15 | CSCC[C@H](NC(=O)OC(C)(C)C)C(=O)NNC(=O)SCC(=O)N1CCc2ccccc2C1 [Compound No. 19] |  |  | 520 nM | 2310 nM | 410 nM | 
16 | CSCC[C@H](NC(=O)OC(C)(C)C)C(=O)NNC(=O)SCC(=O)NCCc1c[nH]c2ccccc12 [Compound No. 20] |  |  | 330 nM | 2420 nM | 310 nM | 
17 | CCc1ccccc1NC(=O)CSC(=O)NNC(=O)[C@@H](NC(=O)OC(C)(C)C)C(C)C [Compound No. 21] |  |  | 660 nM | 870 nM | 3740 nM | 
18 | CC(C)[C@H](NC(=O)OC(C)(C)C)C(=O)NNC(=O)SCC(=O)N1CCCc2ccccc21 [Compound No. 22] |  |  | 680 nM | 630 nM | 4240 nM | 
19 | CC(C)[C@H](NC(=O)OC(C)(C)C)C(=O)NNC(=O)SCC(=O)N1CCc2ccccc21 [Compound No. 23] |  |  | 450 nM | 440 nM | 7240 nM | 
20 | CC(C)[C@H](NC(=O)OC(C)(C)C)C(=O)NNC(=O)SCC(=O)Nc1ccc2c(c1)CCCC2 [Compound No. 24] |  |  | 110 nM | > 25000 nM | 620 nM | 

Row | SMILES | IC50 (human liver cathepsin L; [1]) | cathepsin L inhibitory activity (in words) (human liver cathepsin L) | IC50 (human liver cathepsin L; Table 1, read-out: IC50 Cat L) | IC50 (Human liver cathepsin B) | IC50 (Human spleen cathepsin S) | IC50 (human liver cathepsin L; read-out: IC50 against cathepsin L)
21 | CCc1ccccc1NC(=O)CSC(=O)NNC(=O)[C@H](C)NC(=O)OC(C)(C)C [Compound No. 25] |  |  | ≥ 25000 nM | > 25000 nM | > 25000 nM | 
22 | C[C@H](NC(=O)OC(C)(C)C)C(=O)NNC(=O)SCC(=O)N1CCCc2ccccc21 [Compound No. 26] |  |  | ≥ 25000 nM | > 25000 nM | > 25000 nM | 
23 | CCc1ccccc1NC(=O)CSC(=O)NNC(=O)[C@H](CCC(=O)O)NC(=O)OC(C)(C)C [Compound No. 27] |  |  | ≥ 25000 nM | > 25000 nM | > 25000 nM | 
24 | CCc1ccccc1NC(=O)CSC(=O)NNC(=O)[C@H](CC(C)C)NC(=O)OC(C)(C)C [Compound No. 29] |  |  | 1090 nM | 2630 nM | 1650 nM | 
25 | CCc1ccccc1NCCSC(=O)NNC(=O)[C@H](CC(C)C)NC(=O)OC(C)(C)C [Compound No. 30] |  |  | > 25000 nM | > 25000 nM | > 25000 nM | 
26 | CC(C)C[C@H](NC(=O)OC(C)(C)C)C(=O)NNC(=O)SCC(=O)N1CCCc2ccccc21 [Compound No. 31] |  |  | 1640 nM | 2720 nM | 1640 nM | 
27 | CCc1ccccc1NC(=O)CSC(=O)NNC(=O)[C@@H]1CCCN1C(=O)OC(C)(C)C [Compound No. 32] |  |  | > 25000 nM | > 25000 nM | > 25000 nM | 
28 | CC(C)(C)OC(=O)N1CCC[C@H]1C(=O)NNC(=O)SCC(=O)N1CCCc2ccccc21 [Compound No. 33] |  |  | > 25000 nM | > 25000 nM | > 25000 nM | 
29 | CCc1ccccc1NCCSC(=O)NNC(=O)[C@H](Cc1ccccc1)NC(=O)OC(C)(C)C [Compound No. 35] |  |  | > 25000 nM | > 25000 nM | > 25000 nM | 
30 | CCc1ccccc1NC(=O)CSC(=O)NNC(=O)[C@H](Cc1ccc(OCc2ccccc2)cc1)NC(=O)OC(C)(C)C [Compound No. 36] |  |  | 830 nM | 5080 nM | 2830 nM | 
31 | CC(C)(C)OC(=O)N[C@@H](Cc1ccc(OCc2ccccc2)cc1)C(=O)NNC(=O)SCC(=O)Nc1ccccc1[N+](=O)[O-] [Compound No. 38] |  |  | 590 nM | 2770 nM | 2080 nM | 
32 | CC(C)(C)OC(=O)N[C@@H](Cc1ccc(OCc2ccccc2)cc1)C(=O)NNC(=O)SCC(=O)N1CCc2ccccc2C1 [Compound No. 39] |  |  | 86 nM | 3190 nM | 1310 nM | 
33 | CC(C)(C)OC(=O)N[C@@H](Cc1ccc(OCc2ccccc2)cc1)C(=O)NNC(=O)SCC(=O)N1CCc2ccccc21 [Compound No. 40] |  |  | 700 nM | 3120 nM | 8000 nM | 
34 | CC(C)(C)OC(=O)N[C@@H](Cc1ccc(OCc2ccccc2)cc1)C(=O)NNC(=O)SCC(=O)N1CCOc2ccccc21 [Compound No. 41] |  |  | 1560 nM | 3030 nM | 3980 nM | 
35 | CCOC(=O)c1ccc(NC(=O)CSC(=O)NNC(=O)[C@H](Cc2ccc(OCc3ccccc3)cc2)NC(=O)OC(C)(C)C)cc1 [Compound No. 43] |  |  | 140 nM | > 25000 nM | 1080 nM | 
36 | CCc1ccccc1NC(=O)CSC(=O)NNC(=O)[C@@H](NC(=O)OC(C)(C)C)C(C)OCc1ccccc1 (stereo partly shown) [Compound No. 44] |  |  | 13700 nM | 3670 nM | 3320 nM | 
37 | CC(OCc1ccccc1)[C@H](NC(=O)OC(C)(C)C)C(=O)NNC(=O)SCC(=O)N1CCCc2ccccc21 (stereo partly shown) [Compound No. 45] |  |  | > 25000 nM | 4350 nM | 5150 nM | 
38 | CCc1ccccc1NC(=O)CSC(=O)NNC(=O)[C@@H](Cc1c[nH]c2ccccc12)NC(=O)OC(C)(C)C [R-enantiomer of Compound No. 1] |  |  |  |  |  | 34000 nM
39 | CC(C)(C)OC(=O)NC(Cc1c[nH]c2ccccc12)C(=O)NNC(=O)SCC(=O)N1CCCc2ccccc21 (stereo not shown) [Tetrahydroquinoline S] | 41 ± 2 nM |  |  |  |  | 
